# Tests used:
# Details in all cases: oral 14 days
# [1] = tested on: dopamine (dopa); experiment: Dopamine concentration (Example 3); type: in vivo, rats
# Method: (§1) Distilled water was provided ad libitum. […] Ltd (Bangalore, India).
# (§2) 0.5% Carboxy Methyl Cellulose sodium was used as vehicle and the test item formulations were prepared daily. […] The last dose on day 14 was given 1 hour prior to testing.
# [2] = tested on: male Swiss Albino Wistar rats; experiment: Walter Morris Maze test (Example 3); type: in vivo
# Method: Distilled water was provided ad libitum. […] Ltd (Bangalore, India). […] The last dose on day 14 was given 1 hour prior to testing. The Walter Morris Maze test consisted of a circular pool in a room with geometric shapes on the wall serving as spatial cues. The pool, which is 70 cm in diameter and painted with black color, filled with 13 cm depth of 25±1° C. water. A platform (6 cm diameter) was placed into one quadrant of the pool and submerged 1 cm below the water surface. For the training, all rats were trained to locate the submerged platform in constant location. The training day consisted of four trials. […] The rat was allowed to remain on the platform for 15 seconds before being dried off and later was transferred to a holding cage.
# [3] = tested on: glutathione (GSH); experiment: Glutathione level (Example 3); type: in vivo, rats
# Method: as §1, §2
# [4] = tested on: acetylcholine (Ach); experiment: Acetylcholine concentration (Example 3); type: in vivo, rats
# Method: as §1, §2
Compound,dopamine (dopa) concentration ([1]; old rats),dopamine (dopa) concentration ([1]; young rats),escape latency ([2]; old rats (16-month-old)),escape latency ([2]; young rats (8-week-old)),glutathione (GSH) level ([3]; old rats),glutathione (GSH) level ([3]; young rats),acetylcholine (Ach) concentration ([4]; old rats),acetylcholine (Ach) concentration ([4]; young rats)
"Cn1cnc2c1c(=O)[nH]c(=O)n2C [theobromine, reference compound]",503.03 ± 9.29 ng/L,552.73 ± 10.42 ng/L,42.33 ± 1.63 s,37.67 ± 2.07 s,24.53 ± 0.54 µg/mL,31.28 ± 0.78 µg/mL,56.67±1.32 U/mL,64.28±0.88 U/mL
"Cn1c(=O)c2[nH]cnc2n(C)c1=O [theophylline, reference compound]",495.82 ± 10.86 ng/L,543.78 ± 6.11 ng/L,43.83 ± 1.47 s,38.00 ± 1.90 s,24.23 ± 0.63 µg/mL,29.78 ± 1.07 µg/mL,55.33±1.05 U/mL,63.89±1.64 U/mL

# From patent US12667574B2, “Paraxanthine-based bioactive composition and method of use thereof” (PX ING, LLC, priority 2021, dated 2026)
